Read-outs that look alike come from different tables or passages of the source.
Tests used:
[1] = Delivery of lutein across chicken egg epithelial membrane with polyamine/amine carrier
Protocol: The membrane was washed in deionized water.
Lutein is a naturally occurring carotenoid that reduces the progression of age-related macular degeneration and cataracts. Lutein has a characteristic absorbance which can be measured using a plate reader, and thus it was not necessary to label the lutein with FAM. The absorbance of the solution which had crossed the membrane was measured and compared to the absorbance of the stock solution.

[2] = chicken, 60 seconds
[3] = Delivery of fluorescent (FAM-tagged) peptide across chicken egg epithelial membrane with polyamine/amine carrier; conditions: fold versus control without carrier; Example 5
[4] = Delivery of fluorescence-labelled bevacizumab across chicken egg epithelial membrane with polyamine/amine carrier; conditions: for improvement in the amount of bevacizumab transported across the membrane: versus control without carrier; for improvement in the amount of bevacizumab transported across the membrane / amount of bevacizumab transported across the membrane compared to the control sample: Example 5; for amount of bevacizumab transported across the membrane compared to the control sample: fold versus control without carrier
[5] = chicken, 60 seconds; remark: listed apart in the source
[6] = Delivery of fluorescence-labelled bevacizumab into the posterior segment of ex vivo porcine eyes; format: in vitro ADME; conditions: various incubation times
Protocol: Further tests on porcine eyes was carried out with fluorescence-labelled bevacizumab. […] The same methodology as described in Example 3 was used, but with various incubation times.

[7] = versus control without carrier, Example 5

| % peptide transported across membrane ([1]; chicken, 60 seconds) | amount of lutein transported across the membrane (bound stated in text) ([1]; chicken, 60 seconds) | % peptide transported across membrane [2] | Compound | also measured |
| --- | --- | --- | --- | --- |
| 22.0% | > 20% | 14.1% | NCCCNCCNCCCN [1,2-Bis(3-aminopropylamino)ethane] | amount of peptide transported across the membrane compared with the control test [3]: twice as much peptide |
| – | – | – | NCCCN [1,3-Diaminopropane] | % peptide transported across membrane ([1]; Table 2, lutein with the named polyamine or amine moiety, methodology of Example 1): 0.2%; improvement in the amount of lutein transported across the membrane [1, 7]: did not significantly improve; % peptide transported across membrane ([4]; Table 3, fluorescence-labelled bevacizumab with the named polyamine or amine moiety, methodology of Example 1): 4.4%; improvement in the amount of bevacizumab transported across the membrane [4]: did not significantly improve |
| 6.5% | > 5% | 3.4% | CNCCCN [3-(Methylamino)propylamine] | – |
| – | – | – | NCCCNCCCN [Bis(3-aminopropyl)amine] | amount of peptide transported across the membrane compared with the control test [3]: five times more peptide; amount of bevacizumab transported across the membrane compared to the control sample [4]: more than twice as much |
| – | – | – | NCCCCCN [Cadaverine] | amount of bevacizumab transported across the membrane compared to the control sample [4]: more than twice as much |
| 10.7% | > 5% | 4.0% | CCCCNCCCC [Dibutylamine] | – |
| 2.3% | – | 5.7% | NCCN [Ethylenediamine] | improvement in the amount of lutein transported across the membrane [1, 7]: did not significantly improve; improvement in the amount of bevacizumab transported across the membrane [4]: did not significantly improve |
| 8.0% | > 5% | 4.0% | N=C(N)N [Guanidine] | % peptide transported across membrane [5]: 7.9% |
| – | – | – | NCCC(=O)N[C@@H](Cc1cnc[nH]1)C(=O)O [L-Carnosine] | % peptide transported across membrane [1]: 7.4%; amount of lutein transported across the membrane (bound stated in text) [1]: > 5% |
| 6.7% | > 5% | 9.1% | CC(C)N(CCN)C(C)C [N,N-Diisopropylethylenediamine] | % peptide transported across membrane [5]: 3.3% |
| 19.5% | > 5% | 32.4% | NCCCNCCCNCCCN [N,N′-Bis(3-aminopropyl)-1,3-propanediamine] | amount of peptide transported across the membrane compared with the control test [3]: five times more peptide |
| – | – | – | CNCCN [N-Methylethylenediamine] | % peptide transported across membrane [1]: 20.9%; amount of lutein transported across the membrane (bound stated in text) [1]: > 20% |
| 12.7% | > 5% | 6.9% | NCCCCN [Putrescine] | – |
| 25.7% | > 20% | 22.3% | NCCCCNCCCN [Spermidine] | effect of longer incubation time on amount of bevacizumab transported into the eye tissue [6]: increased with increasing incubation time; amount of peptide transported across the membrane compared with the control test [3]: five times more peptide |
| 27.8% | > 20% | 28.1% | NCCCNCCCCNCCCN [Spermine] | effect of longer incubation time on amount of bevacizumab transported into the eye tissue [6]: did not result in higher delivery; amount of peptide transported across the membrane compared with the control test [3]: twice as much peptide |
| 11.5% | > 5% | 19.7% | NCCNCCNCCNCCN [Tetraethylenepentamine] | % peptide transported across membrane [5]: 28.8% |
| 2.2% | – | 7.1% | CCN(CC)CC [Triethylamine] | improvement in the amount of lutein transported across the membrane [1]: did not significantly improve |
| 4.7% | – | 11.4% | NCCN(CCN)CCN [Tris(2-aminoethyl)amine] | % peptide transported across membrane [5]: 41.0% |
| 14.1% | > 5% | 5.8% | NCCc1ccc(O)cc1 [Tyramine] | % peptide transported across membrane [5]: 11.3% |
| – | – | – | NC(N)=O [Urea] | % peptide transported across membrane [1]: 1.7% |
| – | – | – | CC1=C[C@H](O)CC(C)(C)[C@H]1/C=C/C(C)=C/C=C/C(C)=C/C=C/C=C(C)/C=C/C=C(C)/C=C/C1=C(C)C[C@@H](O)CC1(C)C [lutein, Lutein, reference compound] | lutein crossed the membrane ([1]; chicken, 60 seconds): about 6%; lutein transported across the membrane ([1]; chicken, 60 seconds): 0.5% |

From patent US20250281617A1, “Drug Delivery System” (The University of Birmingham, priority 2019, published 2025)
